Common to all, as to assay: NCI-60 cell line screen, 48 h
The test system of test [1] is HL-60(TB) leukemia.
For test [2], the system named is T-47D breast.
The test system of test [3] is NCI-H522 lung.
Test [4] has as its system LOX IMVI melanoma.
The subject of test [5] is A549 NSCLC.
Test [6] has as its system MDA-MB-231 breast.
Test [7] concerns CAKI-1 renal.
For test [8], the system named is SR leukemia.
The subject of test [9] is SK-OV-3 ovarian.
Test [10] has as its system NCI-H226 lung.
For test [11], the system named is HCC-2998 colon.

The record followed here is PubChem BioAssay (NCI).

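96-well plates; 48 h exposure; 5 concentrations. Endpoints by linear interpolation between flanking doses. Not reached: highest tested concentration assigned. GI50 = concentration required for 50% inhibition of growth. TGI marks complete inhibition of growth.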

As to `NC(Cc1ccccc1)c1nn[nH]n1` (centres undefined), the TGI in test [1], in test [2], in [3], in test [4], in test [5] and in test [6] was above 100 µM each time. For the same compound, the TGI in test [7], in [8], in [9] and in test [10] was above 100 µM each time.
In the case of `Fc1cccc(C2SCc3nc4cc5ccccc5cc4n32)c1` (centres undefined), the TGI in [2], in [11], in [4], in test [5], in test [6] and in test [7] was above 100 µM throughout. For the same compound, the TGI in test [8], in [9] and in test [10] was above 100 µM throughout.
With `CCOC(=O)C1=CNC(C(=O)OCC)C1c1cccn1-c1ccccc1` (centres undefined), the TGI in test [2] was above 100 µM; in test [11], above 100 µM; in [3], 59.1 µM; in test [4], 31 µM; in test [5], above 100 µM; in test [6], 40.1 µM. Also, the results for the TGI in test [7], in [8] and in [10] were above 100 µM, 55.3 µM and 54.2 µM, respectively.
Take `COc1cc(/C=C/C(=O)c2ccc(F)cc2)ccc1OCCCCCOc1cc2c(cc1OC)C(=O)N1CCCC1C=N2` (centres undefined): the GI50 in test [1] is 0.0405 µM; in test [2] it was 0.0231 µM; in test [11], below 0.0174 µM; in test [3] it was 0.0318 µM; in test [6], 0.282 µM; in test [8], below 0.01 µM. Besides, the GI50 was 0.212 µM in test [9] and 0.0493 µM in test [10]. For the same compound, the TGI in test [2] was 1.19 µM; in [11], 0.0382 µM; in [3], 0.249 µM; in test [6] it was 1.96 µM; in test [8] it was below 0.0113 µM; in test [9], 6.06 µM. In test [10], this compound returned a TGI of 1.07 µM.
As for `C=C(CCC/C(C)=C/C=C/[C@H](C)CCCc1ccoc1)C[C@@H]1OC(=O)[C@H](C)[C@@H]1O`, the TGI worked out at 17.6 µM in [2]; 37 µM in test [11]; 18.8 µM in [3]; 31.6 µM in [4]; 15.2 µM in test [5]; 19.4 µM in test [6]. Also, the TGI in [7] came out at 19.2 µM; in test [8], 37.8 µM; in [9] it was 16.8 µM; in test [10], 16.6 µM.
For `CCc1ccc(Nc2cc(=O)n(C)c(SCc3ccccc3)n2)cc1`, the TGI in test [1], in test [2], in [3], in test [4], in [5] and in test [6] was above 100 µM in each case. In addition, the TGI in test [7], in test [8], in [9] and in [10] was above 100 µM each time.
Regarding `O=C(Oc1c(Br)cc(Br)cc1C(=O)Oc1ccccc1)C(=O)Oc1c(Br)cc(Br)cc1C(=O)Oc1ccccc1`, the TGI was above 100 µM in test [1]; 75 µM in test [2]; above 100 µM in test [11]; 32.6 µM in test [3]; 73.8 µM in test [5]; 30.6 µM in [6]. The TGI was 57.9 µM in test [7], 56.1 µM in test [8], above 100 µM in [9] and 46 µM in test [10].
Turning to `O=C1CCN2C(=N1)Sc1ccccc12`, the TGI in test [1], in test [2], in test [3], in [4], in [5] and in [6] was above 100 µM each time. The TGI in [7], in [8], in test [9] and in [10] was above 100 µM in each case.
As for `CC[C@@H]1CC[C@@H]2[C@H](CC[C@]3(C)[C@@H](OC(C)=O)CC[C@@H]23)[C@H]1C(=O)OC`, the TGI in test [1] was 31.3 µM; in test [2] it was 66.8 µM; in [11] it was above 100 µM; in test [3], 47.8 µM; in [4] it was 35.6 µM; in test [5], 70.8 µM. The TGI in test [6] is 46 µM; in test [7] it was above 100 µM; in test [9] it was above 100 µM; in [10], 38 µM.
`CN1CCN(c2ccc3[nH]c(C4=C(O)C(=O)[C@@H]5C(=C4O)N=C(CO)N5C)nc3n2)CC1`: the TGI in test [1], in test [2], in [11], in [3], in test [4] and in test [5] was above 100 µM throughout. Further, the TGI in test [6], in test [7], in test [9] and in test [10] was above 100 µM throughout.
Consider `COc1cc2cc3c4cc(OC)c(OC)cc4cc[n+]3c(C)c2cc1OC`, for which the TGI in test [1], in test [2], in test [11], in test [3], in test [4] and in [5] was above 100 µM throughout. Further, the TGI in test [6], in test [7], in test [9] and in [10] was above 100 µM throughout.
With `CCC(c1ccc(OC)cc1)C1NC(=S)NC1=O` (centres undefined), the TGI in test [1] is 47.3 µM; in test [2], above 50 µM; in [11], above 50 µM; in test [3], above 50 µM; in [4], above 50 µM; in test [5] it was above 50 µM. Also, the TGI in test [6], in [7], in [9] and in test [10] was above 50 µM each time.
Turning to `Cc1c2ccccc2c(C2C3C(=O)N(c4cccc5ccccc45)C(=O)C3ON2Cc2ccc(CC(N)=O)cc2)c2ccccc12` (centres undefined), the TGI in [1], in test [2], in test [3], in [4], in test [5] and in test [6] was above 50 µM throughout. The TGI is above 50 µM in test [7], 37.6 µM in test [8], above 50 µM in test [9] and 46.5 µM in test [10].
Take `O=C(CCc1ccc(O)c(O)c1)NCCc1cc(O)c(O)c(O)c1`: the TGI in test [1] was above 100 µM; in test [2] it was above 100 µM; in test [11], above 100 µM; in test [3], 40.2 µM; in test [4], 31.7 µM; in test [5] it was 54.2 µM. Moreover, the TGI in [6] is 28.5 µM; in test [8] it was above 100 µM; in [9] it was above 100 µM; in [10] it was above 100 µM.
In the case of `COCC12CCC(OC)C34C5CC6(O)C(OC)C=C(C5C6OC(=O)c5ccccc5)C(C(OC)C13)C4N(C)C2` (centres undefined), the TGI in [1], in [2], in [11], in test [3], in [4] and in test [5] was above 100 µM in each case. Moreover, the TGI in test [6], in test [7], in test [8] and in test [9] was above 100 µM in each case.
On to `C/C(=N\O)C1CC2C=C(C#N)C1N(Cc1ccccc1)C2` (centres undefined), for which the TGI in test [1], in test [2], in test [11], in test [4], in test [5] and in test [6] was above 100 µM each time. The TGI in test [7], in test [8], in test [9] and in test [10] was above 100 µM in each case.
Turning to `CCOC(=O)c1cn(CC)c2ccc3ccsc3c2c1=O`, the TGI in test [1], in [2], in test [11], in test [3], in test [4] and in [5] was above 100 µM each time. Also, the TGI in test [6], in test [7], in [9] and in [10] was above 100 µM in each case.
With `CC(C)OC(=O)NNc1cccc(Cl)c1`, the TGI in test [1], in test [2], in test [11], in test [4], in [5] and in test [6] was above 100 µM throughout. The TGI in [7], in test [8], in [9] and in [10] was above 100 µM each time.
As to `CC1CCC2CC1NC(=O)CCOCCC(=O)NC2(C)C` (centres undefined), the TGI in test [1], in [2], in test [11], in [3], in test [4] and in test [5] was above 100 µM in each case. In addition, the TGI in test [6], in test [8] and in test [9] was above 100 µM in each case.
Regarding `COc1ccc(NS(=O)c2c(C)cc(C)cc2C)cc1` (centres undefined), the TGI in [1], in [2], in test [11], in [3], in test [4] and in test [5] was above 100 µM in each case. In addition, the TGI in test [6], in test [8] and in [10] was above 100 µM in each case.
Consider `Oc1c(Cl)c(Cl)c(O)c(CCNc2nccs2)c1Cl`, for which the TGI is above 100 µM in test [1]; 34.8 µM in [2]; 30.3 µM in test [11]; 49.8 µM in test [5]; 2.16 µM in [6]; 29.3 µM in [7]. In addition, the TGI in test [8] is 25.6 µM; in [9], 30.3 µM.
On to `COc1ccccc1NC(=O)C(=O)Cc1cnc2ccccc2n1`, for which the TGI in [1], in test [2], in test [11], in [4], in test [5] and in [6] was above 100 µM throughout. Further, the TGI in test [7], in test [8], in test [9] and in test [10] was above 100 µM each time.
For `O=C(O)C1=CN(c2ccncc2)C(c2ccco2)=CC1c1ccccc1[N+](=O)[O-]` (centres undefined), the TGI was above 100 µM in [1]; 25 µM in test [2]; 3.62 µM in [11]; 25.3 µM in [3]; 3.85 µM in test [4]; 34.2 µM in test [5]. Further, the TGI in [6] came to 30.6 µM; in [7], 34.1 µM; in [9], 33.6 µM; in test [10] it was 38.3 µM.
As to `CC1(C)SCc2nc3ccccc3n21`, the TGI in test [1], in test [2], in test [11], in test [3], in [4] and in [5] was above 100 µM throughout. In addition, the TGI in test [6], in test [7], in [9] and in [10] was above 100 µM each time.
As to `CC(=O)N=c1ccc2nc(N)nn(O)c-2c1`, the TGI in test [1], in [2], in test [3], in [4], in test [5] and in test [6] was above 100 µM in each case. Further, the TGI in test [7], in test [8], in test [9] and in [10] was above 100 µM throughout.
As for `O=C(/C=C/c1ccc(O)c(O)c1)NC(COC(=O)/C=C/c1ccc(O)c(O)c1)C(=O)O` (centres undefined), the TGI in test [2], in test [11], in test [3], in [4], in [5] and in test [6] was above 100 µM in each case. In addition, the TGI in [7], in test [8], in [9] and in [10] was above 100 µM in each case.
